Where “and” joins values, the source holds several entries; their conditions need not be identical. Equal entries are not always repeated.
Experiments:
[1] = test system: pial arteries branching out of the MCA (C57BL/6J); assay: Cerebral artery diameter through cranial window in vivo; set-up: species or system mouse; details: individual replicates
Experimental: Eight-12 week-old male and female C57BL/6J mice were anesthetized with a mixture of xylazine/ketamine (12/100 mg per kg) and kept anesthetized for the duration of the experiment with subsequent ketamine doses (50 mg/kg of weight) as needed. A catheter was inserted into the carotid artery so that the infusion went straight to the brain rather than towards the thoracic cavity. An area of the skull was cleared of tissue and thinned to expose the branching arteries originating from the MCA on the side the catheter was inserted, above the zygomatic arch, between the ear and eye of the skull[19],[34]. The exposed arteries branching out from the MCA were monitored using a Leica MC170 HD microscope with a mounted camera (Leica M125 C) connected to a computer monitor. Drugs were diluted to their final concentration in sodium saline (0.9% NaCl) and administered via catheter at 0.1 ml/25 g of weight. Cranial window images before and after drug administration were acquired every 60 seconds for subsequent analysis.

[2] = target: T1, slo1 (cbv1 isoform)+β1 BK channels (Rattus norvegicus, UniProt P97678); assay: Channel activity (NPo) in POPE/POPS planar lipid bilayers, cbv1+β1; type: biochemical
T1 construct: made in house; host or cells: CHO cells, transient transfection; sucrose-gradient membrane preparation
From the text: BK channel-forming slo1 cDNA (cbv1 isoform; AY330293) was cloned from rat cerebral artery SM cells, and inserted into pcDNA3.1 vector as described. BK β1 cDNA (KCNMB1 product; NP_011452; FJ154955) were isolated from rat cerebral artery SM cells and cloned as described. β4 cDNA (KCNMB4; NP_055320; AY028605) were generously provided by Dr. Ligia Toro. CHO cells were transiently transfected with cbv1 ± β1-, or β4-carrying pcDNA3.1 using X-tremeGENE HP (Sigma-Aldrich). Mutations to β1/4 cDNAs were conducted by Genscript, with sequences being confirmed to be >99% identical to KCNMB1 product; NP_011452 or β4 KCNMB4; NP_055320; respectively. β1/4 and mutant constructs were flag-tagged (DYKDDDDK-tag) by Genscript services for subsequent immunoprecipitation and use in microscale thermophoresis studies.
Proteins for electrophysiological recordings in artificial lipid bilayers remained untagged. Cells were transiently transfected as described above, pelleted and re-suspended on ice in 10 ml of buffer solution of the following composition (mM): 30 KCl, 2 MgCl2, 10 HEPES, 5 EGTA; pH 7.2. A membrane preparation was obtained using a sucrose gradient as described. Aliquots were stored at −80 °C. BK channel-mediated ionic current was recorded in planar lipid bilayers consisting of a POPE:POPS 3:1 (w/w) mixture. Lipid mixtures were dried under N2 and re-suspended in 25 mg/ml of n-decane BK currents following incorporation into horizontal bilayers at 300/30 mM cis/trans gradient as detailed elsewhere. Ion currents were obtained during a 10-min gap-free recording at 0 mV in the presence of 0.01, 10 μM PROG, 10 μM PROG-oxime, or vehicle control (dimethyl sulfoxide; DMSO). Currents were obtained in gap-free mode using a Warner BC-525D amplifier, low pass-filtered at 1 kHz and sampled at 5 kHz with Digidata 1550B/pCLAMP 11 (Molecular Devices). For comparison with previous data from us[16],[17],[45]–[47], studies were conducted at 20–22 °C. […]
Patch-clamp and bilayer data were analyzed using Clampfit 10.7 software (Molecular Devices). NPo was used as an index of channel steady-state activity where N = number of channels in the patch (defined as a maximal number of opening levels at Po≤1) and Po=single channel open probability. Drug-induced NPo changes were determined by comparing baseline NPo (i.e., NPo with the patch/cell perfused with bath solution) to the NPo from the same patch/cell exposed to the agent under study (DMSO/PROG/oxime) dissolved in bath solution. NPo and mean open time values were automatically calculated using Clampfit 10.7, the latter using a 50% threshold detection event.

T1 sequence (P97678 whole entry, canonical isoform): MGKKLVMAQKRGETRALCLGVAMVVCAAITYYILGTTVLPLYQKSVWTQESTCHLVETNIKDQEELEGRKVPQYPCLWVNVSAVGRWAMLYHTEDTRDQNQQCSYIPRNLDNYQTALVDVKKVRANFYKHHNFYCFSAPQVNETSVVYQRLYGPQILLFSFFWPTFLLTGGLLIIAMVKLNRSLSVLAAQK
T1 sequence (Q62976 1-1148 isoform Q62976-2 partner): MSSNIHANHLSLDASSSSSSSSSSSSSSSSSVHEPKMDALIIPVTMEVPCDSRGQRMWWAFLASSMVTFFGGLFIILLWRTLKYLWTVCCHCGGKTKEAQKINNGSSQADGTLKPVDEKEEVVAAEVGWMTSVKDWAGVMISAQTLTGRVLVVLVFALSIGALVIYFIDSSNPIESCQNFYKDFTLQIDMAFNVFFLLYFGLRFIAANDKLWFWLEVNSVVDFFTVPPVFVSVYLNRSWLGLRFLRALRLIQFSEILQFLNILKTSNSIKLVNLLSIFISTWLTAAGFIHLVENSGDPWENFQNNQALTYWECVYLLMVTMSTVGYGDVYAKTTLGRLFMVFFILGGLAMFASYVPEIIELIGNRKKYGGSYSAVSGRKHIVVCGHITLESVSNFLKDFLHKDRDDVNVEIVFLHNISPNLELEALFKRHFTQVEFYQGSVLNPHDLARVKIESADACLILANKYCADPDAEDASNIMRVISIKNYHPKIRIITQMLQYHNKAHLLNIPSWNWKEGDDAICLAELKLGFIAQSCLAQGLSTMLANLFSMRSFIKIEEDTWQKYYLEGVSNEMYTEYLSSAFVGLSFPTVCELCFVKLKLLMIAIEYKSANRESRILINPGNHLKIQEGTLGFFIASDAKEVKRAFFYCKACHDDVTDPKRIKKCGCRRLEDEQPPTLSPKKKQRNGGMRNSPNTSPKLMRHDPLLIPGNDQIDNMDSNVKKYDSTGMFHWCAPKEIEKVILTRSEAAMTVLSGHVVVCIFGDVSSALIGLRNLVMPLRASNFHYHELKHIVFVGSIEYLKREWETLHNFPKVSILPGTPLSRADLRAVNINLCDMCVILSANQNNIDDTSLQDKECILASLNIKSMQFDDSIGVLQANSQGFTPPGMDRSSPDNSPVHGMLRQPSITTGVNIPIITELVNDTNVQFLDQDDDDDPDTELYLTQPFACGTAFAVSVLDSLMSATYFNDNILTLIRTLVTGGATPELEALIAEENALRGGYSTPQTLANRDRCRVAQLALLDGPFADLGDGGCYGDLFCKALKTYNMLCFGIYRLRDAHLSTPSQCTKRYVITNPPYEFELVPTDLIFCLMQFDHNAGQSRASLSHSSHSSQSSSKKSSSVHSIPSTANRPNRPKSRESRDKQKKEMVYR

## CC(=O)C1CCC2C3CCC4=CC(=NOCC(=O)O)CCC4(C)C3CCC12C (stereo not drawn) [PROG-oxime, progesterone 3-(O-carboxymethyl)oxime]
[1]; Fig 7C, time 0, male mice
  artery diameter, normalized to time 0: 1 (4×) and 1.00
[1]; Fig 7C, time 1, male mice
  artery diameter, normalized to time 0: 0.9683 and 1.00 and 1.045 and 1.037 and 1.174
[1]; Fig 7C, time 2, male mice
  artery diameter, normalized to time 0: 0.9748 and 0.99 and 1.075 and 1.065 and 0.9672
[1]; Fig 7C, time 3, male mice
  artery diameter, normalized to time 0: 0.9521 and 0.88 and 1.045 and 0.8398 and 1.066
[1]; Fig 7C, time 4, male mice
  artery diameter, normalized to time 0: 0.9683 and 0.84 and 0.9351 and 0.8169 and 0.9018
[1]; Fig 7C, time 5, male mice
  artery diameter, normalized to time 0: 1.008 and 1.01 and 1.026 and 0.9472 and 0.9098
[1]; Fig 7C, time 6, male mice
  artery diameter, normalized to time 0: 1.041 and 0.92 and 0.9494 and 0.9176 and 1.063
[1]; Fig 7C, time 7, male mice
  artery diameter, normalized to time 0: 0.9184 and 0.90 and 0.9635 and 0.9259 and 0.9935
[1]; Fig 7C, time 8, male mice
  artery diameter, normalized to time 0: 0.9894 and 0.92 and 0.9405 and 0.9778 and 0.9794
[1]; Fig 7C, time 9, male mice
  artery diameter, normalized to time 0: 0.8438 and 0.91 and 1.0031 and 0.973 and 0.9169
[1]; Fig 7D, time 0, female mice
  artery diameter, normalized to time 0: 1.00 and 1 (4×)
[1]; Fig 7D, time 1, female mice
  artery diameter, normalized to time 0: 0.90 and 1.017 and 1.077 and 0.9108 and 0.9562
[1]; Fig 7D, time 2, female mice
  artery diameter, normalized to time 0: 0.98 and 0.9692 and 1.08 and 1.015 (2×)
[1]; Fig 7D, time 3, female mice
  artery diameter, normalized to time 0: 0.96 and 0.8809 and 1.0998 and 0.9303 and 1.006
[1]; Fig 7D, time 4, female mice
  artery diameter, normalized to time 0: 0.71 and 0.9764 and 0.9876 and 0.9569 and 0.8502
[1]; Fig 7D, time 5, female mice
  artery diameter, normalized to time 0: 0.75 and 0.9574 and 1.009 and 0.7872 and 0.892
[1]; Fig 7D, time 6, female mice
  artery diameter, normalized to time 0: 0.76 and 0.8573 and 1.009 and 0.8606 and 0.8869
[1]; Fig 7D, time 7, female mice
  artery diameter, normalized to time 0: 0.82 and 0.8681 and 0.9667 and 0.8496 and 0.8082
[1]; Fig 7D, time 8, female mice
  artery diameter, normalized to time 0: 0.87 and 0.8872 and 1.0207 and 0.8807 and 0.7534
[1]; Fig 7D, time 9, female mice
  artery diameter, normalized to time 0: 0.74 and 0.8893 and 0.9136 and 0.9444 and 0.8332
[1]; Fig 7E, same values as Fig 7C time 7, male mice
  artery diameter, normalized (PROG vs oxime comparison): 0.8986
[1]; Fig 7F, same values as Fig 7D time 7, female mice
  artery diameter, normalized (PROG vs oxime comparison): 0.97 and 0.85 and 0.81
[2]; 10 μM PROG-oxime, min 8, single records
  NPo/NPobasal: 1.05 and 1.498 and 1.058 and 0.7956 and 1.316
[2]; 10 μM PROG-oxime, min 9, single records
  NPo/NPobasal: 1.025 and 1.49 and 0.9987 and 0.8873 and 1.604
[2]; 10 μM PROG-oxime, min 10, single records
  NPo/NPobasal: 1.45 and 1.329 and 1.113 and 0.8109 and 1.283
[2]; 10 μM PROG-oxime, single records (Fig 3E)
  maximal changes in channel activity (NPo/NPobasal): 1.0077 and 0.9962 and 1.086 and 1.4825 and 1.776 and 1.183
[2]; 10 μM, cis chamber, vs DMSO
  action on channel activity (NPo): did not differ from that evoked by vehicle control

From article PMC10636063, “Progesterone activation of β1-containing BK channels involves two binding sites” (Nature Communications, 2023)
